Test results reported in patent publication US20220409521A1, “COMPOSITION FOR COSMETICS” (FE:I BEAUTY TECH, INC., priority 2021, published 2022).

System: Primary human dermal fibroblast (HDF) cells
Experiment: Ferritin induction in HDF cells (ferritin and protein by ELISA)
Format: cell-based
Details: Example 1; 5 μM in culture media, 18 hours; vs cells with no treatment
Experimental: Primary human dermal fibroblast (HDF) cells were cultured in Dulbecco's modified eagle medium (DMEM) with GlutaMAX™ and 10% Fetal Bovine Serum (FBS) and 1% Streptomycin (antibiotics). Before treatment, cells were seeded in a 12-well plate (1 ml culture media and surface area of the well is approximately 4.0 cm^2 per well) overnight. After washing twice with cold phosphate buffered saline (PBS), HDF cells were starved in 0.1% FBS for overnight. Subsequently, cells were treated with ferrous sulfate septahydrate (FeSO4·7H2O) at a final concentration of 5 μM for additional 18 hours. Cells with no treatment were used as a control. Cells were then washed with PBS and lysed. Levels of ferritin and protein were measured by using commercially available enzyme-linked immunosorbent assays (ELISA) kits and quantitated with standard curves constructed with human liver ferritin and human serum albumin as standards. The results were expressed as μg ferritin per mg protein and are show in FIG. 2.
The two iron oxides were premixed homogeneously in a 50% (v/v) of water and tertraethylene glycol and incubated at 3 mg/ml overnight at room temperature in a sodium acetate buffer (10 mM, pH 5.0), mimicking the pHs of acid rain or sweat. […] After the foregoing treatment, cells were collected and levels of ferritin and proteins in cells were measured and calculated as described in Example 1. […]

## O.O.O.O.O.O.O.O=S(=O)([O-])[O-].[Fe+2] [ferrous sulfate, ferrous sulfate septahydrate (FeSO4·7H2O)]
  increase in level of ferritin compared to the control: 570%
